Where a name gives a salt, the structure may show the parent alone. ± gives the standard deviation of the averaged measurements.
Tested on: HepaRG
Assay: LDH release cytotoxicity, % of total lysis control; higher = more cytotoxic
Settings: 48 h
Method in brief: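 Single-lot HepaRG cells in collagen I-coated 96-well plates were treated for 48 h in serum-free induction medium containing 0.5% DMSO with test chemicals in eight-point half-log series up to 100 µM. For total lysis, wells received 0.1% Triton X. LDH in 50 µL spent medium was assayed by resorufin fluorescence with CytoTox-ONE. Percent cytotoxicity was normalized to the on-plate vehicle and total lysis controls, with duplicates averaged.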

Row | SMILES | LDH release cytotoxicity (0.03162 µM) | LDH release cytotoxicity (0.1 µM) | LDH release cytotoxicity (0.3162278 µM) | LDH release cytotoxicity (1 µM) | LDH release cytotoxicity (3.16228 µM) | LDH release cytotoxicity (10 µM) | LDH release cytotoxicity (31.6228 µM) | LDH release cytotoxicity (100 µM) | further results
1 | CCCC(=NOCC)C1C(=O)CC(CC(C)SCC)CC1=O (centres undefined) [Sethoxydim] |  |  |  |  |  |  |  |  | LDH release cytotoxicity (0.0317809 µM): -1.15 ± 0.24%; LDH release cytotoxicity (0.1005 µM): -1.26 ± 0.2%; LDH release cytotoxicity (0.317809 µM): -1.36 ± 1.4%; LDH release cytotoxicity (1.005 µM): -1.93 ± 0.12%; LDH release cytotoxicity (3.17809 µM): -1.21 ± 0.21%; LDH release cytotoxicity (10.05 µM): -0.579 ± 0.73%; LDH release cytotoxicity (31.7809 µM): -0.893 ± 0.41%; LDH release cytotoxicity (100.5 µM): 0.566 ± 0.081%
2 | O=[Si]=O [Silica] | -1.16 ± 0.54% | -1.07 ± 0.26% | -1.23 ± 0.016% | -0.971 ± 0.66% | -1.72 ± 0.45% | -1.27 ± 0.37% | -0.861 ± 1% | 0.501 ± 1.1% | 
3 | CCNc1nc(Cl)nc(NCC)n1 [Simazine] | -0.667 ± 0.47% | -1.85 ± 0.54% | -2.13 ± 0.56% | -2.25 ± 0.22% | -2.26 ± 0.15% | -1.94 ± 0.14% | -0.91 ± 0.2% | -0.579 ± 0.64% | 
4 | O=[N+]([O-])c1ccc(O)cc1 [Sodium 4-nitrophenolate] | -0.704 ± 0.2% | -1.68 ± 0.15% | -1.99 ± 0.34% | -1.48 ± 0.37% | -1.71 ± 0.25% | -1.02 ± 0.3% | -0.45 ± 0.45% | 0.91 ± 0.54% | 
5 | [O-][n+]1ccccc1S [Sodium (2-pyridylthio)-N-oxide] | -1.41 ± 0.6% | -0.73 ± 0.66% | -1.67 ± 0.53% | -0.357 ± 1.3% | -1.51 ± 0.23% | -1.01 ± 0.22% | -0.585 ± 0.072% | 1.58 ± 0.14% | 
6 | [N-]=[N+]=[N-] [Sodium azide] | -0.587 ± 0.19% | -0.947 ± 0.078% | -1.17 ± 1.3% | -1.29 ± 0.45% | -1.23 ± 0.56% | -0.668 ± 0.061% | -0.413 ± 0.77% | 7.38 ± 1.2% | 
7 | O=C(O)c1ccccc1 [Sodium benzoate] |  | -2.13 ± 1.3% |  | -3.15 ± 0.39% | -2.88 ± 0.63% | -2.37 ± 0.27% | -1.36 ± 0.096% | -0.292 ± 1.2% | LDH release cytotoxicity (0.031623 µM): 0.689 ± 0.63%; LDH release cytotoxicity (0.316228 µM): -2.23 ± 0.31%
8 | [O-][Cl+]O [Sodium chlorite] | 0.165 ± 0.73% | 0.219 ± 1.2% | -0.973 ± 0.84% | -1.49 ± 0.98% | -1.49 ± 0.44% | 0.0935 ± 0.52% | -0.775 ± 0.093% | 1.68 ± 0.64% | 
9 | CC(=O)C1C(=O)C=C(C)OC1=O (centres undefined) [Sodium dehydroacetate] | -0.267 ± 0.55% | -1.4 ± 0.22% | -2.06 ± 0.58% | -1.85 ± 0.29% | -2.36 ± 0.14% | -1.16 ± 0.3% | -0.728 ± 0.029% | 0.541 ± 0.069% | 
10 | CN(C)C(=S)S [Sodium dimethyldithiocarbamate] | -0.405 ± 0.41% | -0.29 ± 1% | -0.988 ± 0.04% | -0.72 ± 0.44% | -0.138 ± 0.64% | 0.154 ± 0.44% | 0.196 ± 0.41% | 2.63 ± 2.6% | 
11 | CCCCCCCCCCCCOS(=O)(=O)O [Sodium dodecyl sulfate] | -0.308 ± 0.48% | -0.693 ± 0.47% | -1.14 ± 0.2% | -0.62 ± 0.91% | -1.89 ± 0.58% | -1.05 ± 0.87% | 0.0441 ± 0.35% | 10.1 ± 0.28% | 
12 | CCCCCCCCCCCCc1ccccc1S(=O)(=O)O [Sodium dodecylbenzenesulfonate] | -1.64 ± 0.19% | -2.37 ± 0.1% | -2.11 ± 0.97% | -2.14 ± 0.36% | -1.89 ± 0.21% | -2.56 ± 1.3% | -1.08 ± 0.42% | 49.9 ± 3.5% | 
13 | CCCCCCCCCCCCCCCCOS(=O)(=O)O [Sodium hexyldecyl sulfate] |  |  |  |  |  |  |  |  | LDH release cytotoxicity (0.01581 µM): -0.927 ± 0.59%; LDH release cytotoxicity (0.05 µM): -0.892 ± 0.52%; LDH release cytotoxicity (0.1581139 µM): -1.25 ± 0.18%; LDH release cytotoxicity (0.5 µM): -1.53 ± 0.15%; LDH release cytotoxicity (1.5811388 µM): -0.623 ± 0.48%; LDH release cytotoxicity (5 µM): -0.974 ± 0.097%; LDH release cytotoxicity (15.8114 µM): -0.978 ± 0.78%; LDH release cytotoxicity (50 µM): 10.6 ± 1.9%
14 | CCCCCCCCCCCCCCOS(=O)(=O)O [Sodium myristyl sulfate] | -2.12 ± 0.45% | -2.09 ± 0.56% | -2.4 ± 1.5% | -2.13 ± 0.48% | -2.25 ± 0.37% | -1.43 ± 0.37% | -1.69 ± 0.59% | 12.5 ± 6.7% | 
15 | O=NO [Sodium nitrite] | -3.61 ± 3.5% | 0.52 ± 1.1% | -0.867 ± 0.14% | -2.02 ± 0.5% | -1.06 ± 0.48% | -0.549 ± 0.34% | -1.15 ± 0.46% | 0.684 ± 0.51% | 
16 | O=C1NS(=O)(=O)c2ccccc21 [Sodium saccharin hydrate] | -0.893 ± 0.069% | -1.1 ± 0.76% | -0.541 ± 0.034% | -1.22 ± 0.43% | -1.77 ± 0.0062% | -0.645 ± 0.66% | -0.345 ± 0.15% | 1.33 ± 0.048% | 
17 | O=C(O)C(Cl)(Cl)Cl [Sodium trichloroacetate] | -0.75 ± 0.63% | -0.518 ± 0.088% | -1.06 ± 0.36% | -0.987 ± 0.68% | -1.23 ± 1.3% | -0.588 ± 0.51% | 0.00119 ± 0.52% | 0.935 ± 0.7% | 
18 | Cc1ccc(S(=O)(=O)O)cc1C [Sodium xylenesulfonate] | -0.646 ± 0.56% | -1.44 ± 0.33% | -1.14 ± 1.1% | -1.21 ± 0.25% | -1.1 ± 0.39% | -1.23 ± 0.36% | -1.25 ± 0.27% | 1.23 ± 0.65% | 
